In US4663068A, “Bleach-stable deodorant perfumes in detergent powders” (priority 1983, dated 1987):

How the values were obtained:
lipoxidase (EC1.13.1.13) = target: T1, lipoxidase (EC1.13.1.13) (Glycine max, UniProt P08170); experiment: Lipoxidase Test (inhibition of oxidation of linoleic acid by lipoxidase); type: biochemical; conditions: test substrate made with 0.5% by weight solution of material in ethanol; for inhibition at 0.5 % strength: borate buffer pH 9.0, 234 nm, read-out: LIC value (Lipoxidase-Inhibiting Capacity); for LIC value (Lipoxidase-Inhibiting Capacity): % inhibition, borate buffer pH 9.0, 234 nm
T1 sequence (P08170 1-839): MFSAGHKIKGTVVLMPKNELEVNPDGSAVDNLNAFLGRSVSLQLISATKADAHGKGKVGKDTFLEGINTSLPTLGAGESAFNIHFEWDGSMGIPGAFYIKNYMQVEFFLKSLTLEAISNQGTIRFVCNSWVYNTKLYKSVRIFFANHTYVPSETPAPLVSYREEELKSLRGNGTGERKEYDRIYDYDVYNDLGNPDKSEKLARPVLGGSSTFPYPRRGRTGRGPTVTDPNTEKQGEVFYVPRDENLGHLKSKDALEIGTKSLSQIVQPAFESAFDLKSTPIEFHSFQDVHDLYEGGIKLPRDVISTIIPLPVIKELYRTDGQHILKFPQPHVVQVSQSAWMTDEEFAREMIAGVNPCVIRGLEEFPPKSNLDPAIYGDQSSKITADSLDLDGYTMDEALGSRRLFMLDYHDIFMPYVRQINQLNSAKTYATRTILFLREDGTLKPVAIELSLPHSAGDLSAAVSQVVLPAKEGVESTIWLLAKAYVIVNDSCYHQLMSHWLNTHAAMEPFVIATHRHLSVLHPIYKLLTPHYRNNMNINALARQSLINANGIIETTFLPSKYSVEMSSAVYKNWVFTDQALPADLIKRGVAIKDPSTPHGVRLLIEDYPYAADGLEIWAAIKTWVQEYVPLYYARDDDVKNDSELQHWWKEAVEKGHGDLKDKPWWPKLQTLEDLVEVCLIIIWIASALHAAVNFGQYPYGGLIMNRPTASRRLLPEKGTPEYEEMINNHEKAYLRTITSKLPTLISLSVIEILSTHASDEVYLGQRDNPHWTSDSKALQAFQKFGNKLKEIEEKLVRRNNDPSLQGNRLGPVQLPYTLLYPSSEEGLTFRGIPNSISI

[1] = Morpholine Test (depression of partial vapour pressure of morpholine, Raoult Variance Ratio); conditions: morpholine 0.25 g + material 1 g, 37° C., headspace GC
[2] = Bleach Stability Test (triangle test after storage with perborate and TAED); type: physicochemical; conditions: number of 20 assessors correctly choosing odd one out; 0.2% material in powder with perborate and TAED, 45° C. one week; up to 9 = bleach-stable, 10 or more = unstable
Experimental: (i) dosing a perfume material into the standard unperfumed washing powder and incubating the dosed powder at 20° C. in a sealed container for seven days;
(ii) dividing the dosed powder into two portions and adding to each portion sodium perborate tetrahydrate together with either TAED granules or sodium sulphate (to act as an inert filler in place of TAED) to provide test and control formulations having the following constitution: […]
(iii) incubating both test and control powders in sealed containers at 45° C. for a further seven days; and
(iv) assessing samples of the test and control powders according to a standard triangle test as described in "Manual on Sensory Testing Methods" published by the American Society for Testing and Materials (1969), using a panel of 20 assessors, who are instructed to judge by smell which of the three powder samples is the odd one out, the perfume material being designated a bleach-stable deodorant perfume component when the odd one out is correctly identified by no more than 9 of the 20 assessors.
The stability of perfume materials to the presence of a bleaching composition is assessed according to a standard test which involves the exposure of these individual perfume materials to a mixture of sodium perborate tetrahydrate and TAED in a detergent fabric washing powder under standard conditions of storage.
In order to perform this test, a detergent powder base is prepared according to a standard blowing technique to form a granulated product. The formulation of the detergent powder base is as follows: […]
A selected perfume material is then incorporated by mixing with a portion of the blown base powder to a final concentration of 0.2% by weight of the finished product, and stored at 20° C. in a sealed container for one week with occasional mixing to ensure an even concentration of the perfume material throughout the powder. The sample is the split into two portions and further ingredients mixed in to provide the following test and control formulations:
100 g samples of each control and test batch of powder containing a selected perfume material are then sealed in containers and stored at 45° C. for one week. Each sample is then assessed in a forced choice triangle test according to the following procedure:
Three samples of powder, either one from the test batch and two from the control batch, or two from the test batch and one from the control batch are then assessed by a panel of 20 assessors who are asked to select by sniffing which of the three samples is the "odd one out".
The fragrance of samples containing bleach-stable perfume materials should be unchanged following incubation in the presence of the perborate and TAED, and accordingly there is a 1 in 3 chance of an assessor selecting correctly the control or test sample as the "odd one out".
The Triangle Test procedure is described and discussed in "Manual on Sensory Testing Methods" published by the American Society for Testing and Materials (1969).
The results of each Triangle Test are calculated as follows: […]
If 10 or more of the 20 assessors choose correctly the "odd one out" of the three samples, then the perfume material under test is judged to be unstable in the presence of bleach. If, however, up to 9 of the 20 accessors choose correctly the "odd one out" of 3 samples, then the perfume material under test is judged to be stable in the presence of bleach.

Row | Molecule | inhibition at 0.5 % strength (lipoxidase (EC1.13.1.13)) | RVR value (Raoult Variance Ratio) [1] | BST panel score [2] | LIC value (Lipoxidase-Inhibiting Capacity) (lipoxidase (EC1.13.1.13))
1 | COC(=O)c1ccccc1N [Methyl anthranilate] | 69% | 1.20 | 6 | 
2 | CC(=O)OC1CCC(C(C)(C)C)CC1 (stereo not drawn) [p-t-Butyl cyclohexyl acetate] |  | 0.98 | 10 | 
3 | Tetrahydromuguol |  | 1.23 | 8 | 24%
4 | Dimyrcetol |  | 1.22 | 9 | 16%
5 | CCC(C)(C)C1CCC(=O)CC1 [p-t-Amyl cyclohexanone] |  | 1.10 | 8 | 
6 | CCCCCCC(CCOC(C)=O)OC(C)=O (stereo not drawn) [Nonanediol-1,3-diacetate] |  | 1.17 | 8 | 
7 | CC(=O)OC1CCCCC1C(C)(C)C (stereo not drawn) [o-t-Butylcyclohexyl acetate] |  | 1.08 | 8 | 
8 | CCCCCCOC(=O)c1ccccc1O [Hexyl salicylate] | 100% |  | 5 | 
9 | CC(C)CCOC(=O)c1ccccc1O [iso-Amyl salicylate] |  | 1.24 | 9 | 
10 | CC(=O)c1ccc2ccccc2c1 [β-Methyl naphthyl ketone] |  | 0.96 | 3 | 
11 | CCOC(=O)c1ccccc1O [Ethyl salicylate] |  | 1.19 | 7 | 
12 | CC(C=O)Cc1ccc(C(C)(C)C)cc1 (stereo not drawn) [p-t-Butyl-α-methyl hydrocinnamic aldehyde] |  |  | 13 | 
13 | O=C(OCc1ccccc1)c1ccccc1O [Benzyl salicylate] |  | 1.58 | 17 | 
14 | i-Nonyl formate |  | 1.49 | 8 | 19%
15 | CCCCCC1CCC(=O)O1 (stereo not drawn) [Nonanolide-1,4] |  | 0.87 | 5 | 
16 | CCOc1cc(C=O)ccc1O [Ethyl vanillin] |  | 1.43 | 12 | 
17 | CC(=O)C(C)=CC1C(C)=CCCC1(C)C (stereo not drawn) [α-iso-Methyl ionone] |  |  | 7 | 
18 | CC(C)Cc1ccc2ncccc2c1 [iso-Butyl quinoline] |  | 1.10 | 5 | 
19 | OCCc1ccccc1 [Phenylethyl alcohol] |  | 1.24 | 10 | 
20 | C/C=C\c1ccc(O)c(OC)c1 [iso-Eugenol] |  | 1.48 | 4 | 
21 | Cc1ccc(C(C)C)cc1O [Carvacrol] |  | 1.43 | 6 | 
22 | Hydroxymethyl isopropyl cyclopentane |  | 1.23 | 8 | 60%
23 | CCCCCCCC1CCCC1=O (stereo not drawn) [2-n-Heptylcyclo-pentanone] |  | 1.05 | 7 | 
24 | O=C(Cc1ccccc1)OCCc1ccccc1 [Phenylethyl phenyl acetate] |  | 1.22 | 7 | 
25 | CC1(C)CCCC2(C)C1CCC1(C)OCCC12 (stereo not drawn) [3a-Methyl-dodecahydro-6,6,9a-trimethylnaphtho-2(2,1-b)furan] |  | 1.30 | 5 | 
26 | i-Nonyl acetate |  | 0.83 | 4 | 50%
27 | CCOC(=O)c1ccccc1C(=O)OCC [Diethyl phthalate] |  | 1.20 | 4 | 
28 | OC/C=C/c1ccccc1 [Cinnamic alcohol] |  | 1.28 | 9 | 
29 | CC1COCc2cc3c(cc21)C(C)(C)C(C)C3(C)C (stereo not drawn) [1,3,4,6,7,8-Hexahydro-4,6,6,7,8,8-hexamethyl cyclopenta-α-2-benzopyran] |  |  | 5 | 
30 | O=c1ccc2ccccc2o1 [Coumarin] |  | 1.22 | 10 | 
